Laboratory results reported in paper PMC10525927, “First Generation of Antioxidant Precursors for Bioisosteric Se-NSAIDs: Design, Synthesis, and In Vitro and In Vivo Anticancer Evaluation” (Antioxidants, 2023).

Experiments:
Format in all cases: cell-based
[1] = test system: HT-29 colon cancer cells; experiment: MTT cell viability assay, HT-29; settings: mean ± SD; for IC50 / GI50: Homo sapiens, HT-29, 48 h; for TGI HT-29: in vitro TGI concentration
Protocol: (§1) The cell lines were purchased from the American Type Culture Collection (ATCC). The cancer cell lines DU-145, PC-3, T-47D, MDA-MB-231, H1299, and A549, and the non-tumorigenic cells (184B5 and BEAS-2B), were maintained in RPMI 1640 medium (Gibco, Alcobendas, Madrid, Spain) supplemented with 10% fetal bovine serum (FBS; Gibco) and 1% antibiotics (10.00 units/mL penicillin and 10.00 mg/mL streptomycin; Gibco). Colon cancer cells HT-29 and HCT-116 were cultured in McCoy’s 5A medium (Gibco) supplemented with 10% fetal bovine serum (FBS; Gibco) and 1% antibiotics (10.00 units/mL penicillin and 10.00 mg/mL streptomycin; Gibco). Cells were maintained in tissue culture flasks at 37 °C and 5% CO2. The culture medium was replaced every three days.
(§2) The antiproliferative activity and selectivity in vitro of the Se-NSAID derivatives were determined by the (3-(4,5-dimethylthiazol-2-yl)-2,5-diphenyltetrazolium bromide) (MTT) assay. Compounds were dissolved in DMSO at a concentration of 0.01 M and serial dilutions were prepared. The Se-NSAID derivatives were tested at seven concentrations ranging between 1 and 100 µM in the colon (HT-29 and HCT-116), prostate (DU-145 and PC-3), breast (MDA-MB-231 and T-47D), and lung (H1299 and A549) cancer cell lines. The non-tumorigenic breast (184B5) and lung (BEAS-2B) cell lines were also tested to assess the selectivity of the compounds following the same procedure. A total of 1 × 10^4 cells were seeded per well in 96-well plates and incubated at 5% CO2 and 37 °C for 24 h. Then, cells were treated with either DMSO or increasing concentrations of the corresponding Se-NSAID derivatives for 48 h. A volume of 20 µL of MTT (5 mg/mL) was added to each well 2.5 h before the termination point. At the end of the experiment, the medium was removed, and the resultant formazan crystals formed by mitochondrial reduction of MTT were dissolved in 50 µL of DMSO. Absorbance was measured at 550 nm. IC50, GI50, TGI, and LC50 values were calculated using OriginPro version 8.5.1. software by nonlinear curve fitting. Selectivity indexes (SI) were calculated as the ratio of the IC50 values determined for the nonmalignant and the tumoral cells in the breast (IC50 (184B5)/IC50 (MDA-MB-231) and IC50 (184B5)/IC50 (T-47D)) and lung (IC50 (BEAS-2B)/IC50 (H1299) and IC50 (BEAS-2B)/IC50 (A549)) cell lines. Data were obtained from at least three independent experiments performed in triplicates.

[2] = test system: HCT-116 colon cancer cells; experiment: MTT cell viability assay, HCT-116; settings: mean ± SD; for TGI HCT-116: in vitro TGI concentration
Protocol: as §1, §2

[3] = test system: DU-145 prostate cancer cells; experiment: MTT cell viability assay, DU-145; settings: mean ± SD; for LD50 DU-145 / GI50 / TGI DU-145: Table S1; for TGI DU-145: in vitro TGI concentration
Protocol: as §1, §2

[4] = test system: PC-3 prostate cancer cells; experiment: MTT cell viability assay, PC-3; settings: 48 h, mean ± SD; for GI50 / LD50 PC-3 / TGI PC-3: Table S1; for TGI PC-3: in vitro TGI concentration
Protocol: as §1, §2

[5] = test system: MDA-MB-231 breast cancer cells; experiment: MTT cell viability assay, MDA-MB-231; settings: mean ± SD; for IC50 / GI50: Homo sapiens, MDA-MB-231, 48 h; for GI50 / TGI MDA-MB-231: Table S1; for TGI MDA-MB-231: in vitro TGI concentration, 48 h
Protocol: as §1, §2

[6] = test system: T-47D breast cancer cells; experiment: MTT cell viability assay, T-47D; settings: 48 h, mean ± SD; for LD50 T-47D / GI50 / TGI T-47D: Table S1; for IC50 / GI50: Homo sapiens, T47D; for TGI T-47D: in vitro TGI concentration
Protocol: as §1, §2

[7] = test system: H1299 lung cancer cells; experiment: MTT cell viability assay, H1299; settings: mean ± SD; for TGI H1299: in vitro TGI concentration
Protocol: as §1, §2

[8] = test system: A549 lung cancer cells; experiment: MTT cell viability assay, A549; settings: mean ± SD; for TGI A549: in vitro TGI concentration
Protocol: as §1, §2

[9] = test system: 184B5 non-tumorigenic breast (mammary gland) cells; experiment: MTT cell viability assay, 184B5; settings: mean ± SD; for TGI 184B5: in vitro TGI concentration
Protocol: as §1, §2

[10] = test system: BEAS-2B non-tumorigenic lung (bronchial epithelium) cells; experiment: MTT cell viability assay, BEAS-2B; settings: 48 h, mean ± SD; for LD50 BEAS-2B / GI50 / TGI BEAS-2B: Table S1; for TGI BEAS-2B: in vitro TGI concentration
Protocol: as §1, §2

[11] = test system: panel of eight cancer cell lines; experiment: MTT cell viability assay, statements on the whole panel; settings: 48 h, result in words
Protocol: as §1, §2

[12] = Homo sapiens, HCT-116, 48 h, Table S1
[13] = Homo sapiens, NCI-H1299, 48 h, Table S1
[14] = Homo sapiens, A549, 48 h, Table S1
[15] = 48 h, nonmalignant breast cells
[16] = Homo sapiens, 184B5, 48 h, Table S1
[17] = Homo sapiens, 184B5, 48 h, nonmalignant breast cells
[18] = Homo sapiens, BEAS-2B, nonmalignant lung cells

## CC(C(=O)[Se][Se]C(=O)C(C)c1cccc(C(=O)c2ccccc2)c1)c1cccc(C(=O)c2ccccc2)c1 (stereo not drawn) [Compound 4, 2-(3-Benzoylphenyl)propanoic diselenoperoxyanhydride]
[1]; 48 h, Table S1
  LD50 HT-29: 62.5 ± 14.3 µM
  TGI HT-29: 36.2 ± 3.0 µM
[1]
  IC50: 39.7 ± 3.3 µM
[1]; Table S1
  GI50: 24.4 ± 2.6 µM
[2]; Homo sapiens, HCT-116, 48 h
  IC50: 5.9 ± 1.1 µM
[2]; [12]
  GI50: 4.3 ± 0.6 µM
[2]; 48 h, Table S1
  TGI HCT-116: 6.7 ± 1.9 µM
[3]; 48 h
  LD50 DU-145: 39.6 ± 2.4 µM
  TGI DU-145: 28.5 ± 2.9 µM
[3]; Homo sapiens, DU-145, 48 h
  IC50: 27.9 ± 3.2 µM
  GI50: 19.5 ± 3.5 µM
[4]
  IC50: 5.8 ± 0.6 µM
  GI50: 4.8 ± 0.4 µM
  LD50 PC-3: 6.7 ± 1.2 µM
  TGI PC-3: 5.5 ± 0.5 µM
[5]
  IC50: 4.3 ± 1.2 µM
  GI50: 2.4 ± 0.5 µM
  TGI MDA-MB-231: 4.2 ± 1.7 µM
[6]
  LD50 T-47D: 27.2 ± 2.3 µM
  IC50: 26 ± 2 µM
  GI50: > 100 µM
  TGI T-47D: 9.5 ± 2.3 µM
[7]; 48 h, Table S1
  LD50 H1299: 43.5 ± 1.8 µM
  TGI H1299: 33.6 ± 1.6 µM
[7]; Homo sapiens, NCI-H1299, 48 h
  IC50: 31.6 ± 1.7 µM
[7]; [13]
  GI50: 24.6 ± 1.8 µM
[8]; Homo sapiens, A549, 48 h
  IC50: 11.7 ± 0.9 µM
[8]; [14]
  GI50: 8.1 ± 0.4 µM
[8]; 48 h, Table S1
  TGI A549: 19.9 ± 3.4 µM
[9]; [15]
  IC50: 5.9 ± 0.8 µM
[9]; [16]
  GI50: 4.8 ± 0.3 µM
[9]; [17]
  IC50: ~5 µM
[9]; 48 h, Table S1
  TGI 184B5: 5.4 ± 0.4 µM
[10]
  LD50 BEAS-2B: 5.4 ± 0.4 µM
  TGI BEAS-2B: 4.7 ± 0.3 µM
[10]; nonmalignant lung cells
  IC50: 5.2 ± 0.4 µM
[10]; Homo sapiens, BEAS-2B
  GI50: 4.2 ± 0.6 µM
[10]; [18]
  IC50: ~5 µM

## COc1ccc2c(c1)c(CC(=O)[Se][Se]C(=O)Cc1c(C)n(C(=O)c3ccc(Cl)cc3)c3ccc(OC)cc13)c(C)n2C(=O)c1ccc(Cl)cc1 [Compound 2, 2-(1-(4-Chlorobenzoyl)-5-methoxy-2-methyl-1H-indol-3-yl)acetic diselenoperoxyanhydride]
[1]
  IC50: > 50 µM
[1]; Table S1
  GI50: > 100 µM
[2]; Homo sapiens, HCT-116, 48 h
  IC50: > 50 µM
[2]; [12]
  GI50: 44.5 ± 3.4 µM
[2]; 48 h, Table S1
  TGI HCT-116: 81.5 ± 2.3 µM
[3]; Homo sapiens, DU-145, 48 h
  IC50: > 50 µM
  GI50: 58.4 ± 8.4 µM
[4]
  IC50: > 50 µM
  GI50: > 100 µM
[5]
  IC50: > 50 µM
  GI50: 23.1 ± 14.3 µM
[6]
  IC50: > 50 µM
  GI50: 25.5 ± 10.2 µM
  TGI T-47D: 39.0 ± 8.5 µM
[7]; Homo sapiens, NCI-H1299, 48 h
  IC50: > 50 µM
[7]; [13]
  GI50: 53.2 ± 1.2 µM
[8]; Homo sapiens, A549, 48 h
  IC50: > 50 µM
[8]; [14]
  GI50: > 100 µM
[9]; [15]
  IC50 184B5: completely inactive
[9]; [16]
  GI50: > 100 µM
[9]; [17]
  IC50: > 100 µM
[10]; nonmalignant lung cells
  IC50 BEAS-2B: completely inactive
[10]; Homo sapiens, BEAS-2B
  GI50: > 100 µM
[10]; [18]
  IC50: > 100 µM
[11]
  antiproliferative activity against all the eight cell lines: no activity

## CC(=O)Oc1ccccc1C(=O)[Se][Se]C(=O)c1ccccc1OC(C)=O [Compound 1, 2-Acetoxybenzoic diselenoperoxyanhydride]
[1]
  IC50: 6.6 ± 2.2 µM
[1]; Table S1
  GI50: 3.9 ± 0.4 µM
[1]; 48 h, Table S1
  TGI HT-29: 6.2 ± 1.9 µM
[2]; 48 h
  IC50: 39.2 ± 7.3 µM
[2]; 48 h, Table S1
  LD50 HCT-116: 88.0 ± 3.5 µM
  TGI HCT-116: 44.5 ± 7.1 µM
[2]; Homo sapiens, HCT-116, 48 h
  IC50: ~40 µM
[2]; [12]
  GI50: 21 ± 4 µM
[3]; 48 h
  IC50: 5 ± 0.1 µM
  LD50 DU-145: 6.1 ± 0.7 µM
  TGI DU-145: 5.1 ± 0.2 µM
[3]; Homo sapiens, DU-145, 48 h
  IC50: < 10 µM
  GI50: 4.4 ± 0.5 µM
[4]
  GI50: 2.8 ± 0.2 µM
  LD50 PC-3: 3.3 ± 0.4 µM
  TGI PC-3: 3.0 ± 0.3 µM
[5]
  IC50: 18.3 ± 6.9 µM
  GI50: 6.6 ± 2.2 µM
  TGI MDA-MB-231: 15.3 ± 4.6 µM
[6]
  LD50 T-47D: 6.0 ± 1.9 µM
  IC50: 5.9 ± 1.4 µM
  GI50: 1.6 ± 0.3 µM
  TGI T-47D: 2.9 ± 0.6 µM
[7]; 48 h
  IC50: 8.6 ± 0.8 µM
[7]; Homo sapiens, NCI-H1299, 48 h
  IC50: < 10 µM
[7]; [13]
  GI50: 7.7 ± 1.2 µM
[7]; 48 h, Table S1
  TGI H1299: 9.4 ± 0.8 µM
[8]; 48 h
  IC50: 7 ± 1.3 µM
[8]; 48 h, Table S1
  LD50 A549: 74.6 ± 5.9 µM
  TGI A549: 26.2 ± 5.8 µM
[8]; Homo sapiens, A549, 48 h
  IC50: < 10 µM
[8]; [14]
  GI50: > 100 µM
[9]; 48 h, Table S1
  LD50 184B5: 21.1 ± 3.9 µM
  TGI 184B5: 11.3 ± 1.4 µM
[9]; [15]
  IC50: 14.4 ± 1.5 µM
[9]; [16]
  GI50: 7 ± 1.1 µM
[9]; [17]
  IC50: 14 to 19 µM
[10]
  LD50 BEAS-2B: 17.0 ± 5.7 µM
  TGI BEAS-2B: 8.4 ± 2.4 µM
[10]; nonmalignant lung cells
  IC50: 18.5 ± 3 µM
[10]; Homo sapiens, BEAS-2B
  GI50: 3.9 ± 1.3 µM
[10]; [18]
  IC50: 14 to 19 µM
